Here are results for 8 molecules from patent US6413936B1, “Glycomimetics as selectin antagonists and pharmaceuticals having antiinflammatory activity” (Glycorex AB, priority 1995, dated 2002).

Where two headings read alike, the source gives them in different places. Numbered stars: 1 amine (or outer) side, 2 acyl side, 3 side chain; on linkers, the order of the positions; unused ones are H or OH. Square brackets hold non-standard residues; d marks the D form. Peptide text beside a SMILES is read from it. ξ: configuration not given here. X1 = CC1O[C@@H](CCCc2ccc(CC(N[*:1])C(=O)[*:2])cc2)C(O)C(O)[C@@H]1O; ξR = N=C(N)NCCCC(N)C(=O)O; ξS = NC(CO)C(=O)O

The test system of one assay is selectin. Particulars: cited from earlier work.
Assay [1] deals with selectins. Particulars: prior-art glycopeptide analogs; cited from earlier work.
Assay [2] has as its system selectins. Particulars: prior-art mimetics, Wong et al.; cited from earlier work.
The target of assay [3] is T1, P-selectin (Homo sapiens, UniProt P16109).
T1 sequence (P16109 42-830): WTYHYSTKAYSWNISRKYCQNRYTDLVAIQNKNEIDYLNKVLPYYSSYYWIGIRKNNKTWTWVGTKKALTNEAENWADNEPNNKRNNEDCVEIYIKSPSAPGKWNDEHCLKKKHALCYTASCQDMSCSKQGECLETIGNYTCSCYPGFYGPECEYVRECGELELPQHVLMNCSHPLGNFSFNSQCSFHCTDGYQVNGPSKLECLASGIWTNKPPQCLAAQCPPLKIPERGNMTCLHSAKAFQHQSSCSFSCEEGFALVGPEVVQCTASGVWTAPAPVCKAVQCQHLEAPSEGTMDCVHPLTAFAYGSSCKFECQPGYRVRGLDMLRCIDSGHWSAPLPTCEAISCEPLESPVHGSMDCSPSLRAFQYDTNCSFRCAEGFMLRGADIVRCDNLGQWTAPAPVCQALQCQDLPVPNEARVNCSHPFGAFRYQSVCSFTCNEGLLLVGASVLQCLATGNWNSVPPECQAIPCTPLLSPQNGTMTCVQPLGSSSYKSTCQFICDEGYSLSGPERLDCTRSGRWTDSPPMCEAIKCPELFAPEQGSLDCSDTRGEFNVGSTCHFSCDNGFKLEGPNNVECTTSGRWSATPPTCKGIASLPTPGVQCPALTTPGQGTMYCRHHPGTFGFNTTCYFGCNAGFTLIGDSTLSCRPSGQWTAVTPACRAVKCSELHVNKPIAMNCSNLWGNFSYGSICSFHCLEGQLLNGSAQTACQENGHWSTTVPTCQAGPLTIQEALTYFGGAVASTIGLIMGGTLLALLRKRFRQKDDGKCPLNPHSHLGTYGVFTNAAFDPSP
Particulars: read-out: IC50 for binding to P-selectin; cited from earlier work.

The target of the next assay is T2, E-selectin (Homo sapiens, UniProt P16581).
T2 construct: fusion proteins formed from the extracytoplasmatic domains of E- or P-selectin, respectively, and the constant region of human immunoglobulin of the IgG1 subclass; made in house; host or cells: COS-7 cells (transient transfection, culture supernatant)
T2 sequence (P16581 22-556): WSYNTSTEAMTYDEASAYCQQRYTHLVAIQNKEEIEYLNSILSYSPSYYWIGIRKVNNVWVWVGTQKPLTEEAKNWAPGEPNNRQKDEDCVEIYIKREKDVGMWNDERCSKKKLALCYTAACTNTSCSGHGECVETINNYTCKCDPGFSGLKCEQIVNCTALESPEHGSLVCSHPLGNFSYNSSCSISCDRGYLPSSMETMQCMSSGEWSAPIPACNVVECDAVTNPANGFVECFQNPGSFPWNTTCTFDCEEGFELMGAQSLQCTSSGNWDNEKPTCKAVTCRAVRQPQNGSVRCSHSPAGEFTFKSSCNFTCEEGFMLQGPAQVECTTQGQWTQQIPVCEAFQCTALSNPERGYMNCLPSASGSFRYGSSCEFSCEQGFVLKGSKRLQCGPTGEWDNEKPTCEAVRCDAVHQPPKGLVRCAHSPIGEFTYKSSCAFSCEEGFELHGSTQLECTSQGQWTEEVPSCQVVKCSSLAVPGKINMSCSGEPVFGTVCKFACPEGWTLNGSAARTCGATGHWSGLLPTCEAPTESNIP
In words: HL60 cell adhesion assay on recombinant soluble E-selectin-IgG1 fusion protein. The assay is classed as cell-based. As to conditions: HL60 cell adhesion to E-selectin-IgG1.

Assay [4] deals with T3, P-selectin (Homo sapiens, UniProt P16109).
T3 construct: fused on or other part: constant region (hinge-Fc) of human IgG1 at the C-terminus, used as a capture handle
T3 sequence (P16109 42-321 limits assumed): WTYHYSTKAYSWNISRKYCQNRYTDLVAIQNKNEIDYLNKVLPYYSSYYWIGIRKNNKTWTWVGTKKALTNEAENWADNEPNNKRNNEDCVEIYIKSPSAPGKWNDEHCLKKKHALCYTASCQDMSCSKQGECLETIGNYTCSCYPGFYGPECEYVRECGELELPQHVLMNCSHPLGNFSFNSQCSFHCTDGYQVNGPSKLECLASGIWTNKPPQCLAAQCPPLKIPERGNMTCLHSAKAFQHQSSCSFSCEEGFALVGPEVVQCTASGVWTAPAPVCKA
In words: HL60 cell adhesion assay on recombinant soluble P-selectin-IgG1 fusion protein. The assay is classed as cell-based. As to conditions: HL60 cell adhesion to P-selectin-IgG1. An excerpt: 5. […] In the course of this, the cells have the opportunity to adhere to the coated plastic.

For assay [5], the system named is P-selectin-dependent lung damage. As to conditions: animal experiments; cited from earlier work.
Assay [6] relates to myocardial reperfusion injuries. As to conditions: animal experiments; cited from earlier work.

Source text for E-selectin: In these assays, the ligands may be supplied in their natural form as surface structures on promyelocytic HL60 cells. Since HL60 cells contain ligands and adhesion molecules of very different specificity, the desired specificity of the assay must therefore be provided by the binding component. Preferably, the binding components used are recombinant, soluble, fusion proteins formed from the extracytoplasmatic domains of E- or P-selectin, respectively, and the constant region of human immunoglobulin of the IgG1 subclass. […] An example of a suitable negative control is a fusion protein formed between the extracytoplasmic domain of CD4 and the IgG constant region.
These fusion proteins are then used in a cell adhesion assay in which COS cells transfected with the recombinant fusion proteins are first bound to the surface of a microtiter plate. The compound to be tested is added to the wells of the microtiter platein varying concentrations, followed by HL60 cells. After a defined period of time, the wells of the microtiter plate are washed and the HL60 cells adhering to the plate are counted. In a preferred embodiment, the HL60 cells are prelabeled with a fluorescent dye to facilitate cell counting. The number of cells adhering to the plate allows quantification of the inhibitory properties of the compound under test. […]

For `COC1OC(C)C(O)(CC(=O)CCCOC2(C(=O)O)CC(O)C(NC(C)=O)C([C@H](O)[C@H](O)CO)O2)C(O)C1O` (some centres unmarked), the “affinity for selectin binding” value with selectin is on record as “only low affinity”.
Usually IC50 stands for the concentration that inhibits the measured activity by half. In the case of `C[C@@H]1OC(CC(=O)C2CCC[C@H]2C(=O)N[C@@H](Cc2ccccc2)C(=O)O)[C@@H](O)[C@H](O)[C@@H]1O` (some centres unmarked) [(2)], in the assay on selectins [1], the concentration for half-maximal inhibition (IC50) was approximately 1000 µM.
As for `C[C@@H]1OC(CCCCC2O[C@H](CO)[C@H](O)[C@H](OCC(=O)O)[C@H]2O)[C@@H](O)C(O)[C@@H]1O` (some centres unmarked) [(3)], in the assay with selectins [2], the 50% inhibitory concentration (IC50) is 10000 to 20000 µM.
On to `C[C@@H]1O[C@@H](CC(=O)CO[C@H]2CC[C@@]3(C)C(CC[C@]4(C)[C@H]3C(=O)C=C3[C@@H]5C[C@@](C)(C(=O)O)CC[C@]5(C)CC[C@]34C)C2(C)C)[C@@H](O)[C@H](O)[C@@H]1O` (some centres unmarked) [(4a)], for which, on P-selectin [3], the half-maximal inhibitory concentration (IC50) was 750 µM.
As for `C[C@@H]1O[C@@H](CCCc2ccc(CC(N)C(=O)O)cc2)[C@@H](O)[C@H](O)[C@@H]1O` (some centres unmarked) [Compound 20], the IC50 on E-selectin and at P-selectin [4] was 2000 µM throughout.
As for `CC1O[C@@H](C/C=C/c2ccc(C(=O)O)cc2)C(O)[C@@H](O)[C@@H]1O` (some centres unmarked) [Compound 23], the IC50 on E-selectin and at P-selectin [4] was 2000 µM in each case.
In the case of `CC1O[C@@H](CCCc2ccc(CC(N)C(=O)NC(CCCNC(=N)N)C(=O)NCC(=O)N[C@@H](CC(=O)O)C(=O)NC(CO)C(=O)O)cc2)C(O)C(O)[C@@H]1O` (stereo partly drawn) [Compound 36, Ser-Asp-Gly-Arg-[C-FucPhe]] (H-[X1][ξR]GD[ξS]-OH), on P-selectin [4], the half-maximal inhibitory concentration (IC50) was in the range of 3000 to 5000 µM.
With sialyl-Lewis-X [SLeX], the “protection against P-selectin-dependent lung damage” value in assay [5] is “used successfully”. Besides, the “protection against myocardial reperfusion injuries” value in assay [6] is “used successfully”.
